{
  "source": "ChEMBL document CHEMBL1157047",
  "about": "“Designing inhibitors against fructose 1,6-bisphosphatase: exploring natural products for novel inhibitor scaffolds” (Eur J Med Chem, 2010)",
  "key": {"[1]": {"molecular_target": "T1, Fructose-1,6-bisphosphatase 1 (Homo sapiens, UniProt P09467)", "T1 sequence (P09467 whole entry)": "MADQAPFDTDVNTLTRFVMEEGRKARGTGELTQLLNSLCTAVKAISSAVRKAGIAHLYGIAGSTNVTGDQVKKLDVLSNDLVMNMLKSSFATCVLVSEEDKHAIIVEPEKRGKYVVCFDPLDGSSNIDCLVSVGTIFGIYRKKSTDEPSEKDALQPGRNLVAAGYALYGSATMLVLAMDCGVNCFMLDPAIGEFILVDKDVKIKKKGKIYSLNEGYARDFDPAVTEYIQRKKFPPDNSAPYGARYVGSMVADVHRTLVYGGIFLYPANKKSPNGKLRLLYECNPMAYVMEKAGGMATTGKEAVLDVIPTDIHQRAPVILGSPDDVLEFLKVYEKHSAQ", "assay": "Inhibition of human liver fructose-1,6-bisphosphatase expressed in Escherichia coli BL21 (DE3) assessed as reduction of NADP+ to NADPH by phosphoglucose isomerase/glucose-6-phosphate dehydrogenase coupled assay; call rule not given here"}, "[2]": {"molecular_target": "T2, Fructose-1,6-bisphosphatase 1 (Sus scrofa, UniProt P00636)", "T2 sequence (P00636 whole entry)": "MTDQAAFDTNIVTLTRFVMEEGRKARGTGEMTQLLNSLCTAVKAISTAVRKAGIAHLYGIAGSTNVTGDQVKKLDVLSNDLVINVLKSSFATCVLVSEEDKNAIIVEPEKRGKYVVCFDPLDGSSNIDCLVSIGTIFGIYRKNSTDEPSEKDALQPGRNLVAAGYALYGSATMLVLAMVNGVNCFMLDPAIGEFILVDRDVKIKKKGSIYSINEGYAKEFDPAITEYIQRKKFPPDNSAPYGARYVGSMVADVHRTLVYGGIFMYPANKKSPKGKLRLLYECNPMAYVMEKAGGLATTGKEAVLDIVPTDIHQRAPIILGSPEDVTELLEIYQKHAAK", "assay": "Inhibition of pig kidney fructose-1,6-bisphosphatase expressed in Escherichia coli BL21 (DE3) assessed as reduction of NADP+ to NADPH by phosphoglucose isomerase/glucose-6-phosphate dehydrogenase coupled assay"}},
  "data": [
    {"smiles": "Nc1ncnc2c1ncn2[C@@H]1O[C@H](COP(=O)(O)O)[C@@H](O)[C@H]1O", "note": "[ADENOSINE PHOSPHATE]", "values": [
      {"measurement": "IC50", "setting": "[1]; read-out: IC50", "value": 9.8, "unit": "µM"}
    ]},
    {"smiles": "CC(=O)C1=C(O)C=C2Oc3c(C(C)=O)c(O)c(C)c(O)c3[C@@]2(C)C1=O", "note": "[(+)-USNIC ACID]", "values": [
      {"measurement": "IC50", "setting": "[1]; read-out: IC50", "value": 371, "unit": "µM"}
    ]},
    {"smiles": "Oc1cc(O)c2c(c1)oc1cc(O)cc(O)c12", "values": [
      {"measurement": "IC50", "setting": "[2]", "value": "Not Active"},
      {"measurement": "IC50", "setting": "[1]", "value": "Not Active"}
    ]}
  ]
}
